Laboratory results from US20240254119A1 (THIRD HARMONIC BIO, INC., priority 2022, published 2024).

Assay: Kinetic solubility assay
Format: physicochemical
Conditions: kinetic solubility, 50 mM PB (pH 7.4), shaken 24 hours at RT
Description: 10 μL of 10 mM in DMSO of test article and control compounds was added into lower chambers of whatman miniuniprep vials, respectively. 490 μL of 50 mM PB (pH 7.4) was then added into lower chambers of the whatman miniuniprep vials, respectively. […] Miniuniprep vials were shaken for 24 hours at RT at the speed of 800 rpm, centrifuged 20 minutes (eg. 4000 rpm) and the filtrates were analyzed by UPLC-UV/HPLC-UV system to calculate the concentration with standard curve.
Filter Membrane: Miniuniprep (PTFE Filter Media with Polypropylene Housing) Cat. No. UN203NPUORG, GE Halthcare Whatman.

Compound	Solubility (μM)
Cc1ccc(-c2noc(C3COC3)n2)cc1NC(=O)c1cnc2cc(OC(F)(F)F)ccn12 [I-24]	**** (a solubility less than or equal to 2 μM)
Cc1cn2c(C(=O)Nc3cc(-c4noc([C@H]5C[C@@H]5F)n4)ccc3C)cnc2cc1C#N [I-26]	**** (a solubility less than or equal to 2 μM)
COc1cc2ncc(C(=O)Nc3cc(-c4noc([C@H]5C[C@@H]5F)n4)ccc3C)n2cc1F [I-27]	**** (a solubility less than or equal to 2 μM)
Cc1ccc(-c2noc([C@H]3C[C@@H]3F)n2)cc1NC(=O)c1cnc2cc3c(cn12)COC3 [I-28]	**** (a solubility less than or equal to 2 μM)
COc1cc2ncc(C(=O)Nc3cc(-c4noc([C@H]5C[C@@H]5F)n4)ccc3C)n2cc1C(F)F [I-29]	**** (a solubility less than or equal to 2 μM)
COC(=O)NCc1ccn2c(C(=O)Nc3cc(-c4noc([C@H]5C[C@@H]5F)n4)ccc3C)cnc2c1 [I-30]	**** (a solubility less than or equal to 2 μM)
Cc1ccc(-c2noc([C@H]3C[C@@H]3F)n2)cc1NC(=O)c1cnc2cc(CNC(=O)C(C)(C)O)ccn12 [I-31]	**** (a solubility less than or equal to 2 μM)
CC(=O)NCc1ccn2c(C(=O)Nc3cc(-c4noc([C@H]5C[C@@H]5F)n4)ccc3C)cnc2c1 [I-32]	**** (a solubility less than or equal to 2 μM)
COc1ccn2c(C(=O)Nc3cc(-c4noc([C@H]5C[C@@H]5F)n4)ccc3C)cnc2c1F [I-34]	**** (a solubility less than or equal to 2 μM)
Cc1ccc(-c2noc(C3COC3)n2)cc1NC(=O)c1cnc2cc(CC(F)(F)F)ccn12 [I-36]	**** (a solubility less than or equal to 2 μM)
COc1ccn2c(C(=O)Nc3cc(-c4nc(C)no4)ccc3Cl)cnc2c1 [I-37]	**** (a solubility less than or equal to 2 μM)
O=C(Nc1cc(-c2noc(C3COC3)n2)ccc1Cl)c1cnc2cc(C(F)F)ccn12 [I-38]	**** (a solubility less than or equal to 2 μM)
COc1cc2ncc(C(=O)Nc3cc(-c4noc([C@H]5C[C@@H]5F)n4)ccc3C)n2cc1C(F)(F)F [I-41]	**** (a solubility less than or equal to 2 μM)
COc1cc2ncc(C(=O)Nc3cc(-c4noc([C@H]5C[C@@H]5F)n4)ccc3C)n2cc1C [I-42]	**** (a solubility less than or equal to 2 μM)
Cc1ccc(-c2noc(C3COC3)n2)cc1NC(=O)c1cnc2cc(C(C)(F)F)ccn12 [I-43]	**** (a solubility less than or equal to 2 μM)
Cc1ccc(-c2noc([C@H]3C[C@@H]3F)n2)cc1NC(=O)c1cnc2cc(C(C)(F)F)ccn12 [I-44]	**** (a solubility less than or equal to 2 μM)
COc1ccn2c(C(=O)Nc3cc(-c4noc(C5COC5)n4)ccc3Cl)cnc2c1 [I-47]	**** (a solubility less than or equal to 2 μM)
Cc1ccc(-c2noc(C3COC3)n2)cc1NC(=O)c1cnc2cc(CF)ccn12 [I-48]	**** (a solubility less than or equal to 2 μM)
Cc1ccc(-c2noc([C@H]3C[C@@H]3F)n2)cc1NC(=O)c1cnc2cc(CF)ccn12 [I-49]	**** (a solubility less than or equal to 2 μM)
Cc1ccc(-c2noc(C3COC3)n2)cc1NC(=O)c1cnc2cc(COCCO)ccn12 [I-50]	*** (a solubility greater than 2 μM and less than or equal to 10 μM)
Cc1ccc(-c2noc(C3COC3)n2)cc1NC(=O)c1cnc2cc(C(F)F)ccn12 [I-52]	**** (a solubility less than or equal to 2 μM)
COc1ccn2c(C(=O)Nc3cccc(-c4noc([C@H]5C[C@@H]5F)n4)c3F)cnc2c1 [I-53]	**** (a solubility less than or equal to 2 μM)
O=C(Nc1cc(-c2noc(C3CC3F)n2)ccc1Cl)c1cnc2cc(COCCO)ccn12 (stereo not drawn) [I-56]	**** (a solubility less than or equal to 2 μM)
O=C(Nc1cccc(-c2noc(C3CC3F)n2)c1F)c1cnc2cc(COCCO)ccn12 (stereo not drawn) [I-57]	**** (a solubility less than or equal to 2 μM)
